Read-outs that look alike come from different tables or passages of the source.
Legend:
NFκB = conditions: tumour cells, early in vitro studies; cited from earlier work
SARS-CoV-2 [1] = assay: SARS-CoV-2 replication in human stem cell-derived pneumocyte like cells; format: cell-based; conditions: 10 nm plitidepsin for 1 hour before infection (4×10^4 pfu), 48 hour incubation
Procedure: Several in vitro experiments aimed at determining the effect of plitidepsin on SARS-CoV-2 were carried out and are disclosed herein. […] In another study, human stem cell-derived pneumocyte like cells were prophylactically exposed to 10 nm plitidepsin for 1 hour and then infected with SARS-CoV-2 (4×10^4 plaque forming units). After a 48 hour incubation period, both antiviral and cytotoxic plitidepsin effects were determined.

in vitro = conditions: African green monkey
[2] = Storage stability of plitidepsin vials and reconstituted solution; format: physicochemical
Procedure: Plitidepsin will be labelled with the study protocol code, the batch number, the content, the expiry date, the storage conditions, the name of the investigator and the sponsor. The study drug will be labelled in accordance with Annex 13 of the European Good Manufacturing Practices. Plitidepsin should be stored between 2° C. and 8° C. and the vials should be kept in the outer carton to protect them from light. The drug in these conditions is stable for 60 months.
After reconstitution of the 2 mg plitidepsin vial with 4 ml of the solution for reconstitution of macrogolglycerol ricinoleate/ethanol/water for injection, the reconstituted solution should be diluted and used immediately after preparation. If not used immediately, storage times and conditions until use are the responsibility of the user. […] If storage is required before administration, solutions should be stored refrigerated and protected from light and should be used within 24 hours after reconstitution.

Vero E6 cells = conditions: Vero E6, absence of virus, 3 days
[3] = cancer patients, single-agent plitidepsin; cited from earlier work
HCoV-229E = format: cell-based
eEF1A = target: T1, eEF1A (Oryctolagus cuniculus, UniProt Q71V39); conditions: 14C-plitidepsin, eEF1A purified from rabbit muscle; cited from earlier work
T1 construct: eEF1A purified from rabbit muscle; from tissue; host or cells: rabbit muscle

SARS-CoV-2 [4] = assay: Mouse model of adenovirus-mediated hACE2 infected with SARS-CoV-2; format: in vivo
SARS-CoV-2 (COVID-19) = assay: Study APLICOV-PC (NCT04382066): efficacy in patients hospitalised for COVID-19; format: in vivo, human

T1 sequence (Q71V39 whole entry): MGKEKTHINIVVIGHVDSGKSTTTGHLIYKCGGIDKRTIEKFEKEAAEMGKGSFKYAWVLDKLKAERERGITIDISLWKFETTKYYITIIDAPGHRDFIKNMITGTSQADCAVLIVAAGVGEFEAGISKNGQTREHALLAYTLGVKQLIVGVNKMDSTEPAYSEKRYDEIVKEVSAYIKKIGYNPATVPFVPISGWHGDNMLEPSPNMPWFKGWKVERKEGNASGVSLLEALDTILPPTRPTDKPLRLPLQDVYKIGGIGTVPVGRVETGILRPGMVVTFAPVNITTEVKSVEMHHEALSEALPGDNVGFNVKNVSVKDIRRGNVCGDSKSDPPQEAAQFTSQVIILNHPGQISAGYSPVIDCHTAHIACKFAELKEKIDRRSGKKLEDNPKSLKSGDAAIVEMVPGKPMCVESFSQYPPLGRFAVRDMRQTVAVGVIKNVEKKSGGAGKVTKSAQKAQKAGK

## CC[C@H](C)[C@H]1NC(=O)[C@@H](NC(=O)[C@@H](CC(C)C)N(C)C(=O)[C@@H]2CCCN2C(=O)C(C)=O)[C@@H](C)OC(=O)[C@H](Cc2ccc(OC)cc2)N(C)C(=O)[C@@H]2CCCN2C(=O)[C@H](CC(C)C)NC(=O)[C@@H](C)C(=O)[C@H](C(C)C)OC(=O)C[C@@H]1O [PLD, (−)-(3S,6R,7S,10R,11S,15S,17S,20S,25aS)-11-hydroxy-3-(4-methoxybenzyl)-2,6,17-trimethyl-15-(1-methylethyl)-7-[[(2R)-4-methyl-2-[methyl[[(2S)-1-(2-oxopropanoyl)pyrrolidin-2-yl]carbonyl]amino]pentanoyl]amino]-10-[(1S)-1-methylpropyl]-20-(2-methylpropyl)tetradecahydro-15H-pyrrolo[2,1-f]-[1,15,4,7,10,20]dioxatetrazacyclotricosine-1,4,8,13,16,18,21(17H)-heptone]
NFκB
  Effect on NFκB: induces down-regulation of NFκB
SARS-CoV-2 [1]
  Replication of SARS-CoV-2: completely eliminated replication of SARS-CoV-2
In vitro
  CC50: 178 to 431 nM
[2]; between 2° C. and 8° C., vials in the outer carton protected from light
  Stability of the drug on storage: 60 months
[2]; original vial under indoor light at room temperature
  Physical, chemical and microbiological stability of the reconstituted concentrated solution: 6 hours
[2]; refrigerated conditions (5° C.±3° C.)
  Physical, chemical and microbiological stability of the reconstituted concentrated solution: 24 hours
Vero E6 cells
  Cytotoxic effects of the drug at concentrations inhibiting viral-induced cytopathic effects: no cytotoxic effects of the drug were observed
[3]
  AE asthenia/fatigue: 83%
  AE constipation: 29%
  AE diarrhoea: 31%
  AE nausea: 64%
  AE pyrexia: 28%
  AE vomiting: 38%
HCoV-229E
  Concentration as low as which an antiviral effect was induced: 0.5 nM
eEF1A
  Binding affinity: high affinity
  Rate of dissociation: low rate of dissociation
1.5, 2.0 and 2.5 mg daily for 3 days, 45 patients
  Tolerability of treatment: well tolerated
1.5-mg cohort
  Prevalence of Grade ≥3 AEs: 33.3%
2.0-mg cohort
  Prevalence of Grade ≥3 AEs: 20.0%
2.5-mg cohort
  Prevalence of Grade ≥3 AEs: 40.0
All cohorts
  Events of special interest: Grade ≥3 ALT elevation: 1 case
  Patients unable to complete plitidepsin treatment: 1 patient
All cohorts (14/45)
  Patients who experienced Grade ≥3 AEs: 31%
All cohorts, 45 patients
  Patients who experienced a treatment-related Grade ≥3 AE: 2 patients
Dosed at 1.5 mg
  Patients who experienced SAEs: 6 patients
Dosed at 2.0 mg
  Patients who experienced SAEs: 1 patients
Dosed at 2.5 mg
  Patients who experienced SAEs: 3 patients
human, in vivo
  Patients with a 2 grade increase in CPK: 1 patient
total
  Patients who experienced SAEs: 10 patients
SARS-CoV-2 [4]
  Antiviral effects in vivo: potent antiviral effects in vivo
SARS-CoV-2 (COVID-19)
  Mean time from baseline until undetectable viral load: 11 days
  Mortality from Day 1 to Day 31, (%): (4.5) %
  Patients requiring ICU admission from Day 1 to Day 7, (%): (11.4) %
  Patients requiring ICU admission from Day 1 to Day 15, (%): (13.6) %
  Patients requiring ICU admission from Day 1 to Day 31, (%): (13.6) %
  Patients requiring invasive mechanical ventilation and/or ICU admission from Day 1 to Day 7, (%): (11.4) %
  Patients requiring invasive mechanical ventilation and/or ICU admission from Day 1 to Day 15, (%): (13.6) %
  Patients requiring invasive mechanical ventilation and/or ICU admission from Day 1 to Day 31, (%): (13.6) %
  Patients requiring noninvasive mechanical ventilation from Day 1 to Day 7, (%): (9.1) %
  Patients requiring noninvasive mechanical ventilation from Day 1 to Day 15, (%): (11.4) %
  Patients requiring noninvasive mechanical ventilation from Day 1 to Day 31, (%): (13.6) %
SARS-CoV-2 (COVID-19); 1.5 mg
  Mean time from baseline until undetectable viral load: 7 days
  Mortality from Day 1 to Day 31, (%): (7.1) %
  Patients requiring ICU admission from Day 1 to Day 7, (%): (14.3) %
  Patients requiring ICU admission from Day 1 to Day 15, (%): (14.3) %
  Patients requiring ICU admission from Day 1 to Day 31, (%): (14.3) %
  Patients requiring invasive mechanical ventilation and/or ICU admission from Day 1 to Day 7, (%): (14.3) %
  Patients requiring invasive mechanical ventilation and/or ICU admission from Day 1 to Day 15, (%): (14.3) %
  Patients requiring invasive mechanical ventilation and/or ICU admission from Day 1 to Day 31, (%): (14.3) %
  Patients requiring noninvasive mechanical ventilation from Day 1 to Day 7, (%): (21.4) %
  Patients requiring noninvasive mechanical ventilation from Day 1 to Day 15, (%): (21.4) %
